Data on 24 molecules can be found in patent US12157727B2, “Substituted tetrahydroquinolin compounds as indoleamine 2,3-dioxygenase (IDO) inhibitors” (Merck Sharp & Dohme LLC, priority 2019, dated 2024).

The test has as its target T1, IDO1 (Homo sapiens, UniProt P14902).
T1 construct: Human whole blood was drawn in sodium heparin coated tubes from healthy internal donors; from tissue; host or cells: human whole blood from healthy donors, stimulated with LPS and IFNγ
In words: IDO1 Human Whole Blood Assay. To be noted: LPS and IFNγ 100 ng/mL, overnight (18 h), kynurenine by LC/MS/MS. The format is cell-based. The method, then:
Compounds to be tested were serially diluted in ten 3-fold steps in DMSO starting from 10 mM. 3 μL of compound dilutions or DMSO alone were then dispensed from the dilution plate into a polypropylene 96-well assay plate containing 97 μL of RPMI using an Echo 555 acoustic liquid handler (Labcyte). LPS and IFNγ was prepared in RPMI to a 10× of final conc. (1000 ng/mL), final concentration is 100 ng/mL.
Human whole blood was drawn in sodium heparin coated tubes from healthy internal donors. 240 μL of blood was transferred to each of the wells of a v-bottom 96 well plate. 30 μL of compound was transferred from intermediate dilution plate, and incubated for 15 min. 30 μL from stimulants was then transferred to blood and mixed thoroughly. Plate was covered with breathable membrane and incubated at 37° C. for overnight (18 h).
On day 2 isotope labeled standard of kynurenine and tryptophan was made in water at 10×concentration and 30 μL was added to the blood at 3 μM final concentration. The assay plates were centrifuged at 300×G for 10 min with no brake to separate plasma from red blood cells. 60 μL of plasma samples was removed without disturbing red blood cells. Plasma was diluted with RPMI in 1:1 ratio and proteins were precipitated out with two volumes of Acetonitrile. The plates were centrifuged at 4000×G for 60 min. 20 μL of supernatant was carefully transferred to a 384 well plate contain 40 μL of 0.1% formic acid in water and analyzed by LC/MS/MS.
LC/MS/MS analyses were performed using Thermo Fisher's LX4-TSQ Quantum Ultra system. This system consists of four Agilent binary high-performance liquid chromatography (HPLC) pumps and a TSQ Quantum Ultra triple quadrupole MS/MS instrument. For each sample, 5 μL were injected onto an Atlantis T3 column (2.1 mm×150 mm, 3 μm particle size) from Waters. The mobile phase gradient pumped at 0.8 mL/min was used to elute the analytes from the column at 25° C. The elution started at 0% B increasing linearly to 25% B at 6.5 min, holding at 25% for 1 min, re-equilibrating to 10 min. Mobile phase A consisted of 0.1% formic acid in water. Mobile phase B consisted of 0.1% of formic acid in acetonitrile. Data was acquired in positive mode using a HESI interface. The operational parameters for the TSQ Quantum Ultra instrument were a spray voltage of 4000 V, capillary temperature of 380° C., vaporizer temperature 400° C., shealth gas 60 arbitrary units, Aux gas 20 arbitrary units, tube lens 85 and collision gas 1.2 mTorr. SRM chromatograms of kynurenine (Q1: 209.2>Q3:94.0) and internal standard (Q1: 215.3>Q3:98.2) were collected for 90 sec. The peak area was integrated by Xcalibur Quan software. The ratios between the kynurenine generated in the reaction and 2D6-Kynurenine spiked-in internal standard were used to generate percentage inhibition and IC50 values. Compounds were titrated and IC50' s were calculated by 4 parameter sigmoidal curve fitting formula.

T1 sequence (P14902 whole entry): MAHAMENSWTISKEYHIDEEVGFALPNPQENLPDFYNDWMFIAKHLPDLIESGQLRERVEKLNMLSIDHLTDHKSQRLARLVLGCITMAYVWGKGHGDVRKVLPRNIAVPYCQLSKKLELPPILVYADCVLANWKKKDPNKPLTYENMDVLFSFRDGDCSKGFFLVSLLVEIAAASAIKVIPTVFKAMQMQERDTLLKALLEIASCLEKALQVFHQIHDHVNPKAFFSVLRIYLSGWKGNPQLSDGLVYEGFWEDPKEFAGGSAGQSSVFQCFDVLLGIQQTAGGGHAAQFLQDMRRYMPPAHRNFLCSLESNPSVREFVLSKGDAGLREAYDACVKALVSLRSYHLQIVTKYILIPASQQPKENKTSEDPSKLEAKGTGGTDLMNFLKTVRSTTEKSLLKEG

Molecule `O=C(C1CC1)N1CCCc2nc(C3(c4nc5cc(C(F)(F)F)cnc5[nH]4)CCC3)ccc21` [Example 13, Cyclopropyl(6-(1-(6-(trifluoromethyl)-3H-imidazo[4,5-b]pyridin-2-yl)cyclobutyl)-3,4-dihydro-1,5-naphthyridin-1(2H),-yl)methanone] yielded an IC50 of 56.3 nM. In the case of `COC(=O)N1CCCc2nc(C3(c4nc5cc(C(F)(F)F)cnc5[nH]4)CCC3)ccc21` [Example 18, methyl 6-(1-(6-(trifluoromethyl)-3H-imidazo[4,5-b]pyridin-2-yl)cyclobutyl)-3,4-dihydro-1,5-naphthyridine-1(2H),-carboxylate], half-maximal inhibition (IC50) was put at 494 nM. In the case of `N#Cc1ccc2nc(C3(c4ccc5c(n4)CCCN5c4ccnc(C(F)(F)F)n4)CC4(CC4)C3)[nH]c2c1` [Example 41, 2-(5-(5-(2-(trifluoromethyl)pyrimidin-4-yl)-5,6,7,8-tetrahydro-1,5-naphthyridin-2-yl)spiro[2,3]hexan-5-yl)-1H-benzo[d]imidazole-6-carbonitrile], the IC50 was 71.3 nM.

Take `FC(F)(F)c1nccc(N2CCCc3nc(C4(c5nc6cc(Cl)ccc6[nH]5)CCC4)ccc32)n1` [Example 33, 6-[1-(5-chloro-1H-benzimidazol-2-yl)cyclobutyl]-1-[2-(trifluoromethyl)pyrimidin-4-yl]-1,2,3,4-tetrahydro-1,5-naphthyridine]: the IC50 is 83.3 nM. In turn, `C[C@@H](c1ccc2c(n1)CCCN2C(=O)OC1CC1)c1nc2ccc(Cl)cc2[nH]1` [Example 26, cyclopropyl (S)-6-(1-(6-chloro-1H-benzo[d]imidazol-2-yl)ethyl)-3,4-dihydro-1,5-naphthyridine-1(2H)-carboxylate] came in with a half-inhibitory concentration (IC50) of 55 nM. In turn, `CCOC(=O)N1CCCc2nc(C3(c4nc5cc(C(F)(F)F)cnc5[nH]4)CCC3)ccc21` [Example 19, ethyl 6-{1-[6-(trifluoromethyl)-3H-imidazo[4,5-b]pyridin-2-yl]cyclobutyl}-3,4-dihydro-1,5-naphthyridine-1(2H)-carboxylate] registered a concentration for half-maximal inhibition (IC50) of 274 nM.

`N#Cc1ccc2nc(C3(c4ccc5c(n4)CCCN5C(=O)OC4CC4)CCC3)[nH]c2c1` [Example 20, cyclopropyl 6-[1-(6-cyano-1H-benzimidazol-2-yl)cyclobutyl]-3,4-dihydro-1,5-naphthyridine-1(2H)-carboxylate] returned an IC50 of 35 nM. The molecule `Cc1nccc(N2CCCc3nc(C4(c5nc6cc(Cl)ccc6[nH]5)CCC4)ccc32)n1` [Example 34, 6-[1-(6-chloro-1H-benzimidazol-2-yl)cyclobutyl]-1-(2-methylpyrimidin-4-yl)-1,2,3,4-tetrahydro-1,5-naphthyridine] gave an IC50 of 140 nM.

`O=C([C@H]1CCCCO1)N1CCCc2nc(C3(c4nc5ncc(C(F)(F)F)cc5[nH]4)CCC3)ccc21` [Example 16, (R)-(tetrahydro-2H-pyran-2-yl)(6-(1-(6-(trifluoromethyl)-1H-imidazo[4,5-b]pyridin-2-yl)cyclobutyl)-3,4-dihydro-1,5-naphthyridin-1(2H)-yl)methanone] displayed an IC50 of 14.1 nM. The figure for `C[C@H](c1ccc2c(n1)CCCN2C(=O)OC1CC1)c1nc2ccc(Cl)cc2[nH]1` [Example 27, cyclopropyl (R)-6-(1-(6-chloro-1H-benzo[d]imidazol-2-yl)ethyl)-3,4-dihydro-1,5-naphthyridine-1(2H)-carboxylate] is 56.8 nM; for `FC(F)(F)c1nccc(N2CCCc3nc(C4(c5nc6cc(Cl)cnc6[nH]5)CCC4)ccc32)n1` [Example 35, 6-[1-(6-chloro-3H-imidazo[4,5-b]pyridin-2-yl)cyclobutyl]-1-[2-(trifluoromethyl)pyrimidin-4-yl]-1,2,3,4-tetrahydro-1,5-naphthyridine] it is 53.9 nM. In the case of `CC(c1ccc2c(n1)CCCN2C(=O)OC1CC1)c1nc2ccc(Cl)cc2[nH]1` (stereo not drawn) [Example 25, cyclopropyl 6-(1-(6-chloro-1H-benzo[d]imidazol-2-yl)ethyl)-3,4-dihydro-1,5-naphthyridine-1(2H)-carboxylate] it was 117 nM; in that of `O=C(OC1CC1)N1CCCc2nc(C3(c4nc5ccc(Cl)cc5[nH]4)CCC3)ccc21` [Example 21, cyclopropyl 6-[1-(6-chloro-1H-benzimidazol-2-yl)cyclobutyl]-3,4-dihydro-1,5-naphthyridine-1(2H)-carboxylate], 44.1 nM. `Cc1nccc(N2CCCc3nc(C4(c5nc6cc(C(F)(F)F)cnc6[nH]5)CCC4)ccc32)n1` [Example 30, 1-(2-methylpyrimidin-4-yl)-6-(1-(6-(trifluoromethyl)-3H-imidazo[4,5-b]pyridin-2-vyl)cyclobutyl)-1,2,3,4-tetrahydro-1,5-naphthyridine]: the IC50 stood at 355 nM. The molecule `O=C(C1CC1)N1CCCc2cc(C3(c4nc5ncc(C(F)(F)F)cc5[nH]4)CCC3)ccc21` [Example 1, Cyclopropyl(6-(1-(6-(trifluoromethyl)-1H-imidazo[4,5-b]pyridin-2-yl)cyclobutyl)-3A-dihydroquinolin-1(2H)-yl)methanone] gave a half-inhibitory concentration (IC50) of 186 nM. Turning to `O=C([C@H]1CCCO1)N1CCCc2cc(C3(c4nc5ncc(C(F)(F)F)cc5[nH]4)CCC3)ccc21` [Example 3, [(2R)-oxolan-2-yl][6-{1-[6-(trifluoromethyl)-1H-imidazo[4,5-b]pyridin-2-yl]cyclobutyl}-3,4-dihydroquinolin-1(2H)-yl]methanone], the IC50 worked out at 30.7 nM.

Take `O=C(OC1CC1)N1CCCc2nc(C3(c4nc5ncc(Cl)cc5[nH]4)CCC3)ccc21` [Example 22, cyclopropyl 6-[1-(6-chloro-1H-imidazo[4,5-b]pyridin-2-yl)cyclobutyl]-3,4-dihydro-1,5-naphthyridine-1(2H)-carboxylate]: the IC50 is 60.5 nM. On to `N#Cc1cnc2nc(C3(c4ccc5c(n4)CCCN5C(=O)OC4CC4)CCC3)[nH]c2c1` [Example 24, cyclopropyl 6-[1-(6-cyano-1H-imidazo[4,5-b]pyridin-2-yl)cyclobutyl]-3,4-dihydro-1,5-naphthyridine-1(2H)-carboxylate], for which the IC50 turned out to be 121 nM. Turning to `O=C([C@@H]1CCCCO1)N1CCCc2nc(C3(c4nc5ncc(C(F)(F)F)cc5[nH]4)CCC3)ccc21` [Example 15, (S)-(tetrahydro-2H-pyran-2-yl)(6-(1-(6-(trifluoromethyl)-1H-imidazo[4,5-b]pyridin-2-yl)cyclobutyl)-3,4-dihydro-1,5-naphthyridin-1(2H)-yl)methanone], the IC50 turned out to be 26.1 nM. In turn, `O=C(c1ccccc1Cl)N1CCCc2nc(C3(c4nc5ncc(C(F)(F)F)cc5[nH]4)CCC3)ccc21` [Example 17, (2-chlorophenyl)[6-{1-[6-(trifluoromethyl)-1H-imidazo[4,5-b]pyridin-2-yl]cyclobutyl}-3,4-dihydro-1,5-naphthyridin-1(2H)-yl]methanone] yielded an IC50 of 47.8 nM. In turn, `O=C(OC1CC1)N1CCCc2nc(C3(c4nc5ncc(C(F)(F)F)cc5[nH]4)CCC3)ccc21` [Example 23, cyclopropyl 6-{1-[6-(trifluoromethyl)-1H-imidazo[4,5-b]pyridin-2-yl]cyclobutyl}-3,4-dihydro-1,5-naphthyridine-1(2H)-carboxylate] yielded an IC50 of 64.2 nM. The IC50 values of the last two molecules are within 1.5-fold of each other. Turning to `N#Cc1ccc2nc(C3(c4ccc5c(c4)CCCN5C(=O)C4CC4)CCC3)[nH]c2c1` [Example 4, 2-{1-[1-(cyclopropane-carbonyl)-1,2,3,4-tetrahydroquinolin-6-yl]cyclobutyl}-1H-benzimidazole-6-carbonitrile], the IC50 was determined as 27 nM. This IC50 lies about 2.4-fold lower than the previous one.

`COC(=O)N1CCCc2cc(C3(c4nc5ncc(C(F)(F)F)cc5[nH]4)CCC3)ccc21` [Example 5, Methyl 6-(1-(6-(trifluoromethyl)-1H-imidazo[4,5-b]pyridin-2-yl)cyclobutyl)-3,4-dihydroquinoline-1(2H)-carboxylate] came in with an IC50 of 229 nM. Against the preceding molecule, the IC50 is about 8.5-fold higher. The molecule `O=C(C1CC1)N1CCCc2cc(C3(c4nc5ccc(Cl)cc5[nH]4)CCC3)ccc21` [Example 2, {6-[1-(6-chloro-1H-benzimidazol-2-yl)cyclobutyl]-3,4-dihydroquinolin-1(2H)-yl}(cyclopropyl) methanone] had an IC50 of 132 nM.
